{
  "source": "patent US8575167B2",
  "about": "“Spiro compounds having stearoyl-CoA desaturase action” (Takeda Pharmaceutical Company Limited, priority 2007, dated 2013)",
  "key": {"[1]": {"test_system": "Diet-Induced Obesity (DIO) Model Mouse", "assay": "Antiobesity action on diet-induced obesity (DIO) model mouse: liver unsaturation index number (C18:1/C18:0)", "format": "in vivo", "details": "liver C18:1/C18:0 ratio, 0.1 mg/kg body weight by gavage for 4 weeks, n=7", "text": "Male C57BL/6J mice (6-week-old) were purchased from CLEA Japan, Inc. The mice were divided into two groups, and a high fat diet (Research Diets, Inc.; solid D12451) was given to one group and a general feed for rearing and breeding (CLEA Japan, Inc.; solid CE-2) was given to the other group.\nEach group was reared for 4 months under full feeding, and divided into a diet-induced obesity model group and a general feed group using the body weight and plasma triglyceride concentration as indices. […] of a 0.5% methylcellulose suspension of the compound of Example 15 (0.1 mg/kg body weight) was administered to each of the diet-induced obesity model group and the general feed group by gavage for 4 weeks (each group n=7). […] The body weight of each group was measured during the dosing period. […]\nThe liver total lipid sample extracted by the above-mentioned procedure was labeled using an ester type fatty acid labeling reagent (YMC). The labeled sample was dissolved in methanol (5 μL) and analyzed using YMC-Pack FA (6.0Φ×250 mm), CH3CN:H2O:0.1% TFA (850:150:2) as a mobile phase at a flow rate of 1.2 mL/min. The peak area of each fatty acid in the sample was determined as a C18:1/C18:0 ratio from the peak area of each standard product and used as an unsaturation index number which is an index of the enzyme activity of SCD. […]"}, "[2]": {"target": "T1, SCD (Rattus norvegicus, UniProt P07308)", "T1 construct": "an enzyme reaction using rat liver microsome (20 μg) was performed for 15 min; from tissue; host or cells: rat liver microsome fraction", "T1 sequence (P07308 1-358)": "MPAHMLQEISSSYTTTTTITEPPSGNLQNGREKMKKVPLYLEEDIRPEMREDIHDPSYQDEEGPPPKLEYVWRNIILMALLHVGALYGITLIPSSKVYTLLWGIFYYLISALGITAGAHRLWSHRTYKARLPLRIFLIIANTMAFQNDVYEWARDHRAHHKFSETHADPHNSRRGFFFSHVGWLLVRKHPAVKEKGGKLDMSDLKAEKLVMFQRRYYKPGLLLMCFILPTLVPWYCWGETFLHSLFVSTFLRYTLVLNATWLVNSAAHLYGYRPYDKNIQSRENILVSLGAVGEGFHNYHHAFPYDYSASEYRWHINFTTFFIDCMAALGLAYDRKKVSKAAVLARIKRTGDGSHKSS", "assay": "Measurement of SCD inhibitory activity using microsome (TLC detection system)", "format": "biochemical", "details": "rat liver microsome (20 μg), 15 min, [14C] stearoyl-CoA; test compound (10 mM) diluted to 3/1000 with 3× buffer, 10 μL in 30 μL reaction; read-out: SCD activity inhibitory rate (%)", "procedure": "(Test Method: Measurement of SCD Inhibitory Activity Using Microsome (TLC Detection System))\nA test compound (10 mM) diluted with DMSO in advance was secondarily diluted to 3/1000 with 3× buffer (300 mmol/L NaH2PO4 [pH 7.4], 450 mM KCl, 30 mM NaF, 9 mM MgCl2, 4.5 mM glutathione [reduced form], 0.3% BSA [fatty acid free, SIGMA]). The test compound (10 μL) diluted with the assay buffer was dispensed to a PP 96-deep well block, and a microsome fraction (10 μL) diluted with a microsome buffer was added thereto. The enzyme reaction was started by the addition of 10 μL of [^14C] stearoyl-CoA (American Radiolabeled Chemicals [ARC], Inc.) diluted to 10 μCi/mL with 9 mmol/L NADH. For evaluation of the compound, an enzyme reaction using rat liver microsome (20 μg) was performed for 15 min. The reaction was quenched by the addition of 10 μL of 2.5N NaOH, a plate seal was applied, and the reaction mixture was incubated overnight in a dry heater set to 65° C. to allow saponification. Solvent extraction of fatty acid was based on the Bligh&Dyer method (1). Formic acid:methanol:chloroform (1:6:3) (200 μL) was added, the state of single layer was maintained, the mixture was sufficiently stirred, and pure water (120 μL) was added to allow separation into two layers. The lower chloroform layer (10 μL) was spotted on reversed-phase TLC plate (RP-18, 1154230001, Merck Japan, Ltd.) and developed with acetonitrile:pure water:acetic:acid (95:4.5:0.5). The TLC plate was dried and transferred onto an Imaging Plate (Fuji Photo Film Co., Ltd.) for not less than 5 hr. For detection, BAS-5000 (Fuji Photo Film Co., Ltd) was used and the obtained spot images were converted to numerical values using Multi Gauge Ver2.3 (Fuji Photo Film Co., Ltd), based on which the SCD activity inhibitory rate (%) was determined."}},
  "data": [
    {"smiles": "Cc1nsc(-c2ccc(N3CCC4(C3)OCc3ccccc34)nn2)n1", "note": "(stereo not shown) [Example 15, 1′-[6-(3-methyl-1,2,4-thiadiazol-5-yl)pyridazin-3-yl]-3H-spiro[2-benzofuran-1,3′-pyrrolidine]]", "values": [
      {"measurement": "unsaturation index number (mean ± SD)", "setting": "[1]; diet-induced obesity model group", "result": "43.886 ± 2.0318"},
      {"measurement": "unsaturation index number (mean ± SD)", "setting": "[1]; general feed group", "result": "29.017 ± 1.2254"},
      {"measurement": "inhibition at 10 µM", "setting": "[2]", "result": 100, "unit": "%"}
    ]},
    {"smiles": "Cc1nsc(-c2ccc(N3CCC4(CC3)NC(=O)c3ccccc3N4)nn2)n1", "note": "[Example 6, 1-[6-(3-methyl-1,2,4-thiadiazol-5-yl)pyridazin-3-yl]-1′H-spiro[piperidine-4,2′-quinazolin]-4′(3′H)-one]", "values": [
      {"measurement": "inhibition at 10 µM", "setting": "[2]", "result": 95, "unit": "%"}
    ]}
  ]
}
